Measurements from patent US11866518B2, “Bicyclic peptide ligands specific for TSLP” (BicycleTx Limited, priority 2020, dated 2024).
*1 amine or outer side, *2 acyl side, *3 side chain or, on linkers, in order; H or OH if unused. Where a SMILES comes first, the peptide text is derived from it. Bridges are numbered along the chain shown (N, C = ends). TATA = O=C(CC[*:1])N1CN(C(=O)CC[*:2])CN(C(=O)CC[*:3])C1

Experiments:
TSLP [1] = molecular target: T1, TSLP (Homo sapiens, UniProt Q969D9); assay: Human TSLP Surface Plasmon Resonance (SPR) binding assay; set-up: The resulting construct spCD33-6×HN-TEV-hTSLP(29-159)-Avi; 6xHN tag with TEV site (N, cleaved yes); made in house; host or cells: Expi293F cells; settings: biotinylated human TSLP immobilized on streptavidin chip; 20° C.; steady-state or kinetic 1:1 fit; read-out: hTSLP SPR Kd
T1 sequence (Q969D9 29-159): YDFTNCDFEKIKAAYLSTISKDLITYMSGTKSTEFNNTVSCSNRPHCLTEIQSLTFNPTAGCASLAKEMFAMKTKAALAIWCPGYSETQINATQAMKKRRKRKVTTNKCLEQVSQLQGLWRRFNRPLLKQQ

TSLP [2] = molecular target: T1, TSLP; assay: Human peripheral blood mononuclear cell assay (TSLP-induced CCL17/TARC); assay type: cell-based; set-up: host or cells: added to human PBMCs from healthy donors; settings: read-out: CCL17 % Inhibition @ 10 μM, […] TSLP
Method: Human peripheral blood mononuclear cells (PMBCs) were obtained from heparinized whole blood (healthy donors) by density gradient centrifugation using Lymphoprep (StemCell Technologies, Vancouver, BC) according to the manufacturers instructions. The PBMCs were washed twice with PBS containing 2 mM EDTA and 2% fetal calf serum (FCS) and reconstituted in RPMI containing 10% FCS and 2% PenStrep at a final concentration of 3 million cells/mL. This cell suspension (100 μL) was aliquoted into the wells of a 96-well flat bottom tissue culture plate. 5 μL of bicycle peptide or vehicle (0.1% DMSO in complete medium) was then added and mixed with 5 μL of TSLPvehicle (complete medium). […] The plate was incubated for 30 minutes are rt. 10 μL of this mixture was added to cells and the plate was incubated for 24 hours in a 10% CO2, humidified incubator at 37° C. The plate was centrifuged at 300×g for 5 min and the collected supernatants frozen at −20° C. for subsequent CCL17/TARC analysis.
CCL17/TARC was determined by MSD (MesoScale Discovery, Maryland, USA) according to the manufacturer's instructions.

Row | SMILES | Kd (TSLP [1]) [nM] | inhibition at 10 µM (TSLP [2]) [%]
1 | CC(=O)N[C@H]1CSCCC(=O)N2CN3CN(C2)C(=O)CCSC[C@H](NC(=O)[C@H](CC(=O)O)NC(=O)[C@H](CCC(=O)O)NC(=O)[C@H](CC(C)C)NC(=O)[C@H](Cc2c[nH]c4ccccc24)NC(=O)[C@H](CCC(N)=O)NC1=O)C(=O)N[C@@H](Cc1c[nH]c2ccccc12)C(=O)N[C@@H](CCCNC(=N)N)C(=O)NCC(=O)N[C@@H](Cc1ccc(Cl)c(Cl)c1)C(=O)N[C@H](C(N)=O)CSCCC3=O [Example 11, Ac-(SEQ ID NO: 9)] | 5.8 | 43
2 | CC(=O)N[C@@H](C)C(=O)N[C@H]1CSCCC(=O)N2CN3CN(C2)C(=O)CCSC[C@@H](C(=O)N2CCC[C@H]2C(=O)N[C@@H](CC(C)C)C(=O)N[C@@H](CC(=O)O)C(N)=O)NC(=O)[C@H](Cc2ccccc2)NC(=O)CNC(=O)[C@H](CCCNC(=N)N)NC(=O)[C@H](Cc2c[nH]c4ccccc24)NC(=O)[C@H](CSCCC3=O)NC(=O)[C@H](CC(=O)O)NC(=O)[C@H](CCC(=O)O)NC(=O)[C@H](CC(C)C)NC(=O)[C@H](Cc2c[nH]c3ccccc23)NC(=O)[C@H](CCC(N)=O)NC1=O [Example 53, Ac-A-(SEQ ID NO: 38)-PLD] | 43 | -2
3 | CSCC[C@H](NC(=O)[C@@H](N)[C@@H](C)O)C(=O)N[C@@H](CCC(=O)O)C(=O)N[C@@H](Cc1ccc(O)cc1)C(=O)N[C@@H](CCCNC(=N)N)C(=O)N[C@@H](CC(=O)O)C(=O)N[C@H]1CSCCC(=O)N2CN3CN(C2)C(=O)CCSC[C@H](NC(=O)[C@H](CC(=O)O)NC(=O)[C@H](CCC(=O)O)NC(=O)[C@H](CC(C)C)NC(=O)[C@H](Cc2c[nH]c4ccccc24)NC(=O)[C@H](CCC(N)=O)NC1=O)C(=O)N[C@@H](Cc1c[nH]c2ccccc12)C(=O)N[C@@H](CCCNC(=N)N)C(=O)NCC(=O)N[C@@H](Cc1ccccc1)C(=O)N[C@H](C(=O)N[C@@H](C)C(N)=O)CSCCC3=O [Example 56, TMEYRD-(SEQ ID NO: 38)-A] | – | 40
4 | CC(C)C[C@@H]1NC(=O)[C@H](Cc2c[nH]c3ccccc23)NC(=O)[C@H](CCC(N)=O)NC(=O)[C@@H](NC(=O)[C@H](C)N)CSCCC(=O)N2CN3CN(C2)C(=O)CCSC[C@H](NC(=O)[C@H](CC(=O)O)NC(=O)[C@H](CCC(=O)O)NC1=O)C(=O)N[C@@H](Cc1c[nH]c2ccccc12)C(=O)N[C@@H](CCCNC(=N)N)C(=O)NCC(=O)N[C@@H](Cc1ccccc1)C(=O)N[C@H](C(=O)N[C@@H](C)C(N)=O)CSCCC3=O [Example 68, A-(SEQ ID NO: 38)-A] | – | 33
5 | CC(C)C[C@@H]1NC(=O)[C@H](Cc2c[nH]c3ccccc23)NC(=O)[C@H]([C@@H](C)O)NC(=O)[C@@H](NC(=O)[C@H](C)N)CSCCC(=O)N2CN3CN(C2)C(=O)CCSC[C@H](NC(=O)[C@H](CC(=O)O)NC(=O)[C@H](CC(=O)O)NC1=O)C(=O)N[C@@H](Cc1c[nH]c2ccccc12)C(=O)N[C@@H](CCCNC(=N)N)C(=O)NCC(=O)N[C@@H](Cc1ccccc1)C(=O)N[C@H](C(=O)N[C@@H](C)C(N)=O)CSCCC3=O [Example 76, A-(SEQ ID NO: 57)-A] (H-ACTWLDDCWRGFCA-NH2; linker 2-8-13 via TATA; N-terminus and C-terminus assumed) | – | 0
6 | CC(=O)N[C@H]1CSCCC(=O)N2CN3CN(C2)C(=O)CCSC[C@H](NC(=O)[C@H](CC(=O)O)NC(=O)[C@H](CCC(=O)O)NC(=O)[C@H](CC(C)C)NC(=O)[C@H](Cc2c[nH]c4ccccc24)NC(=O)[C@H](CCC(N)=O)NC1=O)C(=O)N[C@@H](Cc1c[nH]c2ccccc12)C(=O)N[C@@H](CCCNC(=N)N)C(=O)NCC(=O)N[C@@H](Cc1ccccc1)C(=O)N[C@H](C(N)=O)CSCCC3=O [Example 79, Ac-(SEQ ID NO: 38)] | – | -18
